# From the kinase profiling compilation of Christmann-Franck et al. (2016)
# What was measured:
# EIF2AK2 (human) = EIF2AK2 (human) (UniProt P19525); test: IMAP-FP
# EIF2AK3 (human) = EIF2AK3 (human) (UniProt Q9NZJ5); test: IMAP-FP
# PKN1 (human) = PKN1 (human) (UniProt Q16512); test: IMAP-FP
# PLK2 (human) = PLK2 (human) (UniProt Q9NYY3); test: IMAP-FP
# SRPK1 (human) = SRPK1 (human) (UniProt Q96SB4); test: IMAP-FP
# AKT3 (human) = AKT3 (human) (UniProt Q9Y243); test: Caliper, Mobility shift assay off-chip
# AURKA (human) = AURKA (human) (UniProt O14965); test: Caliper, Mobility shift assay off-chip
# AURKB (human) = AURKB (human) (UniProt Q96GD4); test: Caliper, Mobility shift assay off-chip
# BRSK1 (human) = BRSK1 (human) (UniProt Q8TDC3); test: Caliper, Mobility shift assay off-chip
# CDK6 (human) = CDK6 (human) (UniProt Q00534); test: Caliper, Mobility shift assay off-chip
# DDR2 (human) = DDR2 (human) (UniProt Q16832); test: Caliper, Mobility shift assay off-chip
# EPHA3 (human) = EPHA3 (human) (UniProt P29320); test: Caliper, Mobility shift assay off-chip
# FLT1 (human) = FLT1 (human) (UniProt P17948); test: Caliper, Mobility shift assay off-chip
# FLT3 (human) = FLT3 (human) (UniProt P36888); test: Caliper, Mobility shift assay off-chip
# GSK3A (human) = GSK3A (human) (UniProt P49840); test: Caliper, Mobility shift assay off-chip
# HCK (human) = HCK (human) (UniProt P08631); test: Caliper, Mobility shift assay off-chip
# ITK (human) = ITK (human) (UniProt Q08881); test: Caliper, Mobility shift assay off-chip
# JAK1 JH1 JH2 (human) = JAK1 JH1 JH2 (human) (UniProt P23458); test: Caliper, Mobility shift assay off-chip
# JAK3 JH1 JH2 (human) = JAK3 JH1 JH2 (human) (UniProt P52333); test: Caliper, Mobility shift assay off-chip
# MET (human) = MET (human) (UniProt P08581); test: Caliper, Mobility shift assay off-chip
# MST4 (human) = MST4 (human) (UniProt Q9P289); test: Caliper, Mobility shift assay off-chip
# NEK9 (human) = NEK9 (human) (UniProt Q8TD19); test: Caliper, Mobility shift assay off-chip
# PIM3 (human) = PIM3 (human) (UniProt Q86V86); test: Caliper, Mobility shift assay off-chip
# PRKCD (human) = PRKCD (human) (UniProt Q05655); test: Caliper, Mobility shift assay off-chip
# ROCK2 (human) = ROCK2 (human) (UniProt O75116); test: Caliper, Mobility shift assay off-chip
# ROS1 (human) = ROS1 (human) (UniProt P08922); test: Caliper, Mobility shift assay off-chip
# RPS6KA5 KD1 KD2 (human) = RPS6KA5 KD1 KD2 (human) (UniProt O75582); test: Caliper, Mobility shift assay off-chip
# SGK2 (human) = SGK2 (human) (UniProt Q9HBY8); test: Caliper, Mobility shift assay off-chip
# STK3 (human) = STK3 (human) (UniProt Q13188); test: Caliper, Mobility shift assay off-chip
# TXK (human) = TXK (human) (UniProt P42681); test: Caliper, Mobility shift assay off-chip
# TYK2 JH1 JH2 (human) = TYK2 JH1 JH2 (human) (UniProt P29597); test: Caliper, Mobility shift assay off-chip
# TYRO3 (human) = TYRO3 (human) (UniProt Q06418); test: Caliper, Mobility shift assay off-chip
# INSR (human) = INSR (human) (UniProt P06213); test: Caliper, Mobility shift assay off-chip
# PAK3 (human) = PAK3 (human) (UniProt O75914); test: Caliper, Mobility shift assay off-chip
# Chain of PKN1 (human) (Q16512 whole entry, looked up): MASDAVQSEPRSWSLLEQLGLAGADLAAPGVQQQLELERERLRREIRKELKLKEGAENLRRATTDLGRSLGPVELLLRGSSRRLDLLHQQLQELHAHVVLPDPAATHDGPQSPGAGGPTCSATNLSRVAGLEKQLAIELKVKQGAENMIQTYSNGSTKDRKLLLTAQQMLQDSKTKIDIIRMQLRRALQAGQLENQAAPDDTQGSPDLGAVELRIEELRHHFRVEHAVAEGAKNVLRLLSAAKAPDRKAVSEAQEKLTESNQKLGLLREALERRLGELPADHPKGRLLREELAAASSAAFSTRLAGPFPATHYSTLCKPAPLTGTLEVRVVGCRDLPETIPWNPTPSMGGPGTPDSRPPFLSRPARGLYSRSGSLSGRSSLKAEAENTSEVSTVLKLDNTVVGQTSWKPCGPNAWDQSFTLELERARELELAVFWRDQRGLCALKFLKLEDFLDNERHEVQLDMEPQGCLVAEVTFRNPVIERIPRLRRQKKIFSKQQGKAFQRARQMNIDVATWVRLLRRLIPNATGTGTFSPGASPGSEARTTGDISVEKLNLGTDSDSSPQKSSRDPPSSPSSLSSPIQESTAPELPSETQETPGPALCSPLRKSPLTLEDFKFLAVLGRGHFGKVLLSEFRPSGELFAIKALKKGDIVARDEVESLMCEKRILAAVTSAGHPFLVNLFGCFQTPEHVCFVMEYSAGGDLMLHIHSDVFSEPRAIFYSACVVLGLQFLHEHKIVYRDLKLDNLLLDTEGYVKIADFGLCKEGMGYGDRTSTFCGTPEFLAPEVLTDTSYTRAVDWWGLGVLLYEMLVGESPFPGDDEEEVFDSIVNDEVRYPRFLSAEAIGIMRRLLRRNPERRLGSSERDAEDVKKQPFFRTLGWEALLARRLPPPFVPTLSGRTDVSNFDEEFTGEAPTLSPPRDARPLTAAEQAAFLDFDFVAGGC
# Chain of JAK3 JH1 JH2 (human) (P52333 whole entry, looked up): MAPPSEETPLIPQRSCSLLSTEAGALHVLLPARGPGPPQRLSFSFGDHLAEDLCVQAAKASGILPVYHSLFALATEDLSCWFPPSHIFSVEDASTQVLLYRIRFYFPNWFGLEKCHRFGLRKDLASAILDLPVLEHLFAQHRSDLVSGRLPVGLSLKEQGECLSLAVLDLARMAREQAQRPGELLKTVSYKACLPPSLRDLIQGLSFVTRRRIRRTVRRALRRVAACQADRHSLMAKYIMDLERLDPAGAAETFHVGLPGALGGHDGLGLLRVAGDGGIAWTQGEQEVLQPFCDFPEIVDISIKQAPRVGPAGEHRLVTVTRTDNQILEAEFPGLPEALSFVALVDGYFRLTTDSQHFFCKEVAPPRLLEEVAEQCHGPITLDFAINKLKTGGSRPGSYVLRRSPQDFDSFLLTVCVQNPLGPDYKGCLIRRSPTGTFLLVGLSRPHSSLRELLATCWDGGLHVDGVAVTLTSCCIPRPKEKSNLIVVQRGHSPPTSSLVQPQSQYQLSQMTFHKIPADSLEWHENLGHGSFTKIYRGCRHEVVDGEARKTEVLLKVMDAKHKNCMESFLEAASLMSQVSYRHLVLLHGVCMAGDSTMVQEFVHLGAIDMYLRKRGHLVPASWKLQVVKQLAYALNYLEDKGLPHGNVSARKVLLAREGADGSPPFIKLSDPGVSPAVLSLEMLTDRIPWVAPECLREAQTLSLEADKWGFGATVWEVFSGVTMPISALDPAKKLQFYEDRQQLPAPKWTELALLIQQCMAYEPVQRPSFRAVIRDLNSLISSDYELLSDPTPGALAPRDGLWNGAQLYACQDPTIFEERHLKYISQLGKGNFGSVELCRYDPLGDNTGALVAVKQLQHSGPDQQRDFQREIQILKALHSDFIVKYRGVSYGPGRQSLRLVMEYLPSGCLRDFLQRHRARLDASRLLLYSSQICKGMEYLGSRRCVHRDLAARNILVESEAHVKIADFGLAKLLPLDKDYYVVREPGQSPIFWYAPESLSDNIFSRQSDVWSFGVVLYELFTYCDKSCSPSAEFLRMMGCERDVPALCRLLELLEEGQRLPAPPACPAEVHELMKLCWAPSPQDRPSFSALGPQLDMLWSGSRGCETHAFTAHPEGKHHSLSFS
# Chain of ROS1 (human) (P08922 whole entry, looked up): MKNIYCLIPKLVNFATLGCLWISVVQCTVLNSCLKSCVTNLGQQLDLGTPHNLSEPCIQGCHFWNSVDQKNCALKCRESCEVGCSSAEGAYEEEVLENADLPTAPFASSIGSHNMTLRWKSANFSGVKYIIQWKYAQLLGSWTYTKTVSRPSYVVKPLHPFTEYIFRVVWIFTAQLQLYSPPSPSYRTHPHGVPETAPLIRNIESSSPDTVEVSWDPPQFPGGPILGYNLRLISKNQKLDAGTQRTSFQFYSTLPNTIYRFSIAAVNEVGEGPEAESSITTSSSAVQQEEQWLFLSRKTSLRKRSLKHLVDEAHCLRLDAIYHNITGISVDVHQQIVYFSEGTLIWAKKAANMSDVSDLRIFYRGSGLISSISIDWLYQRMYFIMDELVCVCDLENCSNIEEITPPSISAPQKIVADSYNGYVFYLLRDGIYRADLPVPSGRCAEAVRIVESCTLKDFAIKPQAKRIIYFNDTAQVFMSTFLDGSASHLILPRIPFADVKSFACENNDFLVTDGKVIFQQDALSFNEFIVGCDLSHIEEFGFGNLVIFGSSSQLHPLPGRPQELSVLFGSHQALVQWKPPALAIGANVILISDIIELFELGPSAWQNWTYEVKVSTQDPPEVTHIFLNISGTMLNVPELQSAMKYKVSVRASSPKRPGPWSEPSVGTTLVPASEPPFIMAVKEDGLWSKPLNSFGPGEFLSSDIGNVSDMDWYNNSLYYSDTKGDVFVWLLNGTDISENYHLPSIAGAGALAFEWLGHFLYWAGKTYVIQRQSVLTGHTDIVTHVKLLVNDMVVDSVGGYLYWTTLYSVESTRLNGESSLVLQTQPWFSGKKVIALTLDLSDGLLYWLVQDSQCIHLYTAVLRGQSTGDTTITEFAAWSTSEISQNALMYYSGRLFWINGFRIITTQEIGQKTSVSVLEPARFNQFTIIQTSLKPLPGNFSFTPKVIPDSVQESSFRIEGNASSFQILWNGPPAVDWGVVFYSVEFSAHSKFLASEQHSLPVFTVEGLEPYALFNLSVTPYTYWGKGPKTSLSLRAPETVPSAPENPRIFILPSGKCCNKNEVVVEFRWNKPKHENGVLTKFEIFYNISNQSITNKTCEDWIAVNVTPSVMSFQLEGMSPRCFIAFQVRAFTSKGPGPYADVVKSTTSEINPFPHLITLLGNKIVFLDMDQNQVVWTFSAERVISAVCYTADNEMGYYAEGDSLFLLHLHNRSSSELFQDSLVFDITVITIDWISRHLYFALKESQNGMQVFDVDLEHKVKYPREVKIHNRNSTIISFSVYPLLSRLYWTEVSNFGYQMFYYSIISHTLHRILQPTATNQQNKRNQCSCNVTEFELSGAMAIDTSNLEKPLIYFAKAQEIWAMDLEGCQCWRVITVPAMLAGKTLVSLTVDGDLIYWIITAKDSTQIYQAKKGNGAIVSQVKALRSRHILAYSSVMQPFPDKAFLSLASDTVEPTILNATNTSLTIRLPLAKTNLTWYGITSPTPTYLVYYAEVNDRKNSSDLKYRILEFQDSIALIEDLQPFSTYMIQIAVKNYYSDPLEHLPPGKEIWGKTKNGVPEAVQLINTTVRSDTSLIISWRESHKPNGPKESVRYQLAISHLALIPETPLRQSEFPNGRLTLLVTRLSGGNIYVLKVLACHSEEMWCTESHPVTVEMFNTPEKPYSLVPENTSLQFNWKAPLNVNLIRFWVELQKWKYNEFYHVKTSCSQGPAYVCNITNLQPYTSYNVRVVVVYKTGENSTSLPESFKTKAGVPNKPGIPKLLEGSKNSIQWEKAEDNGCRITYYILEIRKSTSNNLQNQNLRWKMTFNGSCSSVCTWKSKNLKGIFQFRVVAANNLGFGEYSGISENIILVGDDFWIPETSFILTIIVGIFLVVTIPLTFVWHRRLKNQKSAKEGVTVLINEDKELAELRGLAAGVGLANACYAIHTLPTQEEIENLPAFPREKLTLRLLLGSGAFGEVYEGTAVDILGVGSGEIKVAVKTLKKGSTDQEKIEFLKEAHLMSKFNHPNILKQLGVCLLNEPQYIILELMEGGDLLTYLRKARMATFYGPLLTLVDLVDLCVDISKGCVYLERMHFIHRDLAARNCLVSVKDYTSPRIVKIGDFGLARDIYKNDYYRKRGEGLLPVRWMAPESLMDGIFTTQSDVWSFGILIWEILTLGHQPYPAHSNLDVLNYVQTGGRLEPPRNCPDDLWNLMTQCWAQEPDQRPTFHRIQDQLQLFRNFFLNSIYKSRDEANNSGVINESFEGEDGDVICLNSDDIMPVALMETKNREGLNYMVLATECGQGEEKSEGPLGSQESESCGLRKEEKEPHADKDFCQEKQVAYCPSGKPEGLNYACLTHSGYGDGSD
# Chain of GSK3A (human) (P49840 whole entry, looked up): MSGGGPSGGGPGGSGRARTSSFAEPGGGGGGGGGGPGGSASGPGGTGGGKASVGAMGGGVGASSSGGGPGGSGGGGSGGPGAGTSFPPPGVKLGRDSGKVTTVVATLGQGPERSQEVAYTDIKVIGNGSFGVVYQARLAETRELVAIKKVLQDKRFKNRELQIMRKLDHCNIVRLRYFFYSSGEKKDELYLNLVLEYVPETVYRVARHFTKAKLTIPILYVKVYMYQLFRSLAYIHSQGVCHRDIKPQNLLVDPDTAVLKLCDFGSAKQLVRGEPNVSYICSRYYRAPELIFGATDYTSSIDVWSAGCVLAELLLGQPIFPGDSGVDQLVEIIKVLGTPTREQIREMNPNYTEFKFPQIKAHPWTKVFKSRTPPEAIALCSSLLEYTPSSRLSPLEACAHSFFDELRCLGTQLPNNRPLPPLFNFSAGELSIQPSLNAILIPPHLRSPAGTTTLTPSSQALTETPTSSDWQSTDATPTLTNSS
smiles,measurement,setting,value
CCN(CC)CCNC(=O)c1c(C)[nH]c(/C=C2\C(=O)Nc3ccc(F)cc32)c1C,inhibition,EIF2AK2 (human); compound 0.2 µM,29.1%
same,inhibition,EIF2AK2 (human); compound 4.0 µM,88.4%
same,inhibition,EIF2AK3 (human); compound 0.2 µM,-15%
same,inhibition,EIF2AK3 (human); compound 4.0 µM,-5.4%
same,inhibition,PKN1 (human); compound 0.2 µM,-2.2%
same,inhibition,PKN1 (human); compound 4.0 µM,57.1%
same,inhibition,PLK2 (human); compound 0.2 µM,-4.7%
same,inhibition,PLK2 (human); compound 4.0 µM,4.2%
same,inhibition,SRPK1 (human); compound 0.2 µM,-0.7%
same,inhibition,SRPK1 (human); compound 4.0 µM,39.6%
same,inhibition,AKT3 (human); compound 0.2 µM,2.3%
same,inhibition,AKT3 (human); compound 4.0 µM,44.8%
same,inhibition,AURKA (human); compound 0.2 µM,31.1%
same,inhibition,AURKA (human); compound 4.0 µM,87.3%
same,inhibition,AURKB (human); compound 0.2 µM,46%
same,inhibition,AURKB (human); compound 4.0 µM,90%
same,inhibition,BRSK1 (human); compound 0.2 µM,40%
same,inhibition,BRSK1 (human); compound 4.0 µM,86.6%
same,inhibition,CDK6 (human); compound 0.2 µM,23.8%
same,inhibition,CDK6 (human); compound 4.0 µM,89.2%
same,inhibition,DDR2 (human); compound 0.2 µM,55.8%
same,inhibition,DDR2 (human); compound 4.0 µM,98%
same,inhibition,EPHA3 (human); compound 0.2 µM,-0.2%
same,inhibition,EPHA3 (human); compound 4.0 µM,21.2%
same,inhibition,FLT1 (human); compound 0.2 µM,90.4%
same,inhibition,FLT1 (human); compound 4.0 µM,103%
same,inhibition,FLT3 (human); compound 0.2 µM,100%
same,inhibition,FLT3 (human); compound 4.0 µM,102%
same,inhibition,GSK3A (human); compound 0.2 µM,3.3%
same,inhibition,GSK3A (human); compound 4.0 µM,21.8%
same,inhibition,HCK (human); compound 0.2 µM,38%
same,inhibition,HCK (human); compound 4.0 µM,94.6%
same,inhibition,ITK (human); compound 0.2 µM,93.3%
same,inhibition,ITK (human); compound 4.0 µM,101%
same,inhibition,JAK1 JH1 JH2 (human); compound 0.2 µM,10.9%
same,inhibition,JAK1 JH1 JH2 (human); compound 4.0 µM,70.4%
same,inhibition,JAK3 JH1 JH2 (human); compound 0.2 µM,37.5%
same,inhibition,JAK3 JH1 JH2 (human); compound 4.0 µM,96%
same,inhibition,MET (human); compound 0.2 µM,9%
same,inhibition,MET (human); compound 4.0 µM,65.3%
same,inhibition,MST4 (human); compound 0.2 µM,4%
same,inhibition,MST4 (human); compound 4.0 µM,63.2%
same,inhibition,NEK9 (human); compound 0.2 µM,0%
same,inhibition,NEK9 (human); compound 4.0 µM,20.7%
same,inhibition,PIM3 (human); compound 0.2 µM,3.1%
same,inhibition,PIM3 (human); compound 4.0 µM,42.9%
same,inhibition,PRKCD (human); compound 0.2 µM,0.9%
same,inhibition,PRKCD (human); compound 4.0 µM,48.4%
same,inhibition,ROCK2 (human); compound 0.2 µM,20%
same,inhibition,ROCK2 (human); compound 4.0 µM,76.7%
same,inhibition,ROS1 (human); compound 0.2 µM,18.4%
same,inhibition,ROS1 (human); compound 4.0 µM,81.4%
same,inhibition,RPS6KA5 KD1 KD2 (human); compound 0.2 µM,18.2%
same,inhibition,RPS6KA5 KD1 KD2 (human); compound 4.0 µM,73.3%
same,inhibition,SGK2 (human); compound 0.2 µM,5.5%
same,inhibition,SGK2 (human); compound 4.0 µM,57.6%
same,inhibition,STK3 (human); compound 0.2 µM,51.4%
same,inhibition,STK3 (human); compound 4.0 µM,95.7%
same,inhibition,TXK (human); compound 0.2 µM,6.1%
same,inhibition,TXK (human); compound 4.0 µM,43%
same,inhibition,TYK2 JH1 JH2 (human); compound 0.2 µM,21.6%
same,inhibition,TYK2 JH1 JH2 (human); compound 4.0 µM,78.3%
same,inhibition,TYRO3 (human); compound 0.2 µM,82.2%
same,inhibition,TYRO3 (human); compound 4.0 µM,100%
COc1cc2c(Oc3ccc4[nH]c(C)cc4c3F)ncnc2cc1OCCCN1CCCC1,inhibition,EIF2AK2 (human); compound 0.02 µM,-13.8%
same,inhibition,EIF2AK2 (human); compound 0.2 µM,-6.6%
same,inhibition,EIF2AK3 (human); compound 0.02 µM,-18%
same,inhibition,EIF2AK3 (human); compound 0.2 µM,-16.8%
same,inhibition,PKN1 (human); compound 0.02 µM,-35.8%
same,inhibition,PKN1 (human); compound 0.2 µM,-32.5%
same,inhibition,PLK2 (human); compound 0.02 µM,-0.9%
same,inhibition,PLK2 (human); compound 0.2 µM,-1.6%
same,inhibition,SRPK1 (human); compound 0.2 µM,-5.6%
same,inhibition,AKT3 (human); compound 0.02 µM,-3.5%
same,inhibition,AKT3 (human); compound 0.2 µM,-4.2%
same,inhibition,AURKA (human); compound 0.02 µM,3.3%
same,inhibition,AURKA (human); compound 0.2 µM,4.9%
same,inhibition,AURKB (human); compound 0.02 µM,4.5%
same,inhibition,AURKB (human); compound 0.2 µM,8.3%
same,inhibition,BRSK1 (human); compound 0.02 µM,2.2%
same,inhibition,BRSK1 (human); compound 0.2 µM,7.5%
same,inhibition,CDK6 (human); compound 0.02 µM,11.4%
same,inhibition,CDK6 (human); compound 0.2 µM,4.1%
same,inhibition,DDR2 (human); compound 0.02 µM,26.6%
same,inhibition,DDR2 (human); compound 0.2 µM,82.1%
same,inhibition,EPHA3 (human); compound 0.02 µM,-6.9%
same,inhibition,EPHA3 (human); compound 0.2 µM,-1.2%
same,inhibition,FLT1 (human); compound 0.02 µM,91.6%
same,inhibition,FLT1 (human); compound 0.2 µM,102%
same,inhibition,FLT3 (human); compound 0.02 µM,10%
same,inhibition,FLT3 (human); compound 0.2 µM,9.8%
same,inhibition,GSK3A (human); compound 0.02 µM,3.5%
same,inhibition,GSK3A (human); compound 0.2 µM,2.1%
same,inhibition,HCK (human); compound 0.02 µM,0.4%
same,inhibition,HCK (human); compound 0.2 µM,21.1%
same,inhibition,INSR (human); compound 0.02 µM,-0.3%
same,inhibition,INSR (human); compound 0.2 µM,-2.4%
same,inhibition,ITK (human); compound 0.02 µM,6.7%
same,inhibition,ITK (human); compound 0.2 µM,5.5%
same,inhibition,JAK1 JH1 JH2 (human); compound 0.02 µM,-2.9%
same,inhibition,JAK1 JH1 JH2 (human); compound 0.2 µM,-3.6%
same,inhibition,JAK3 JH1 JH2 (human); compound 0.02 µM,5.1%
same,inhibition,JAK3 JH1 JH2 (human); compound 0.2 µM,4%
same,inhibition,MET (human); compound 0.02 µM,1%
same,inhibition,MET (human); compound 0.2 µM,6%
same,inhibition,MST4 (human); compound 0.02 µM,-7.3%
same,inhibition,MST4 (human); compound 0.2 µM,-3%
same,inhibition,NEK9 (human); compound 0.02 µM,-3.3%
same,inhibition,NEK9 (human); compound 0.2 µM,-2.9%
same,inhibition,PAK3 (human); compound 0.02 µM,-1.7%
same,inhibition,PAK3 (human); compound 0.2 µM,3.3%
same,inhibition,PIM3 (human); compound 0.02 µM,-1.8%
same,inhibition,PIM3 (human); compound 0.2 µM,-6.2%
same,inhibition,PRKCD (human); compound 0.02 µM,11.1%
same,inhibition,PRKCD (human); compound 0.2 µM,-2.2%
same,inhibition,ROCK2 (human); compound 0.02 µM,-2.2%
same,inhibition,ROCK2 (human); compound 0.2 µM,-4.8%
same,inhibition,ROS1 (human); compound 0.02 µM,0.6%
same,inhibition,ROS1 (human); compound 0.2 µM,0.4%
same,inhibition,RPS6KA5 KD1 KD2 (human); compound 0.02 µM,-4.9%
same,inhibition,RPS6KA5 KD1 KD2 (human); compound 0.2 µM,-7.3%
same,inhibition,SGK2 (human); compound 0.02 µM,4.4%
same,inhibition,SGK2 (human); compound 0.2 µM,3.9%
same,inhibition,STK3 (human); compound 0.02 µM,-2.4%
same,inhibition,STK3 (human); compound 0.2 µM,-3%
same,inhibition,TXK (human); compound 0.02 µM,-0.7%
same,inhibition,TXK (human); compound 0.2 µM,-0.1%
same,inhibition,TYK2 JH1 JH2 (human); compound 0.02 µM,4.8%
same,inhibition,TYK2 JH1 JH2 (human); compound 0.2 µM,2.2%
same,inhibition,TYRO3 (human); compound 0.02 µM,7.9%
same,inhibition,TYRO3 (human); compound 0.2 µM,40.5%
